# Experimental data: patent US5166135A, “Method for the control of pneumocystis carinii” (Merck & Company, Inc., priority 1991, dated 1992)
# Values joined by “and” are separate entries in the source; they are usually repeats but may differ in a detail not shown here. Equal values may be shown once. Numbered stars: 1 amine (or outer) side, 2 acyl side, 3 side chain; on linkers, the order of the positions; unused ones are H or OH. Bridge positions count the residues as written; N and C are the ends. Square brackets hold non-standard residues; d marks the D form. Peptide text beside a SMILES is read from it. * marks the point of attachment. ξ: configuration not given here. Orn(4R-OH,5R-OH) = O=C([C@H](C[C@@H](O)[C@@H](O)N[*:3])N[*:1])[*:2]; ξOrn(4R-OH,5R-OH) = O=C(C(C[C@@H](O)[C@@H](O)N[*:3])N[*:1])[*:2]; Tetradecanoyl(10R,12S-Me2) = CC[C@H](C)C[C@H](C)CCCCCCCCC(=O)*; hTyr(3S-OH,4S-OH) = N[C@H](C(=O)O)[C@H](O)[C@@H](O)c1ccc(O)cc1; ξhTyr(3S-OH,4S-OH) = NC(C(=O)O)[C@H](O)[C@@H](O)c1ccc(O)cc1; ξOrn(4,5-diOH) = O=C(C(CC(O)C(O)N[*:3])N[*:1])[*:2]; ξhTyr(βξ-OH,γξ-OH) = NC(C(=O)O)C(O)C(O)c1ccc(O)cc1; Pro(3S-OH,4S-Me) = C[C@H]1CN[C@H](C(=O)O)[C@H]1O; Benzoyl(4-octyloxy) = CCCCCCCCOc1ccc(C(=O)*)cc1; Gln(3R-OH) = NC(=O)C[C@@H](O)[C@H](N)C(=O)O; Linoleoyl = CCCCC/C=C\C/C=C\CCCCCCCC(=O)*; X1 = C[C@H]1CN([*:1])C(C(=O)[*:2])[C@H]1O; ξPro(3ξ-OH,4ξ-Me) = CC1CNC(C(=O)O)C1O; ξPro(4R-OH) = O=C(O)C1C[C@@H](O)CN1; Stearoyl = CCCCCCCCCCCCCCCCCC(=O)*; Hyp = O=C(O)[CH]1C[CH](O)CN1; ξT = CC(O)C(N)C(=O)O
# Assays:
# P. carinii [1] = assay: Immunosuppressed mice study, reduction of cysts (Table II); format: in vivo, C3 H/HeN mice; settings: 2 mg/kg intraperitoneally twice daily for one week
# Text: Male C3 H/HeN mice, weighing 22-24 grams each, were immunosuppressed by the addition of dexamethasone to the drinking water for six weeks to induce the development of P. carinii infections. To enhance the infections the mice were also maintained on a low protein diet. At the beginning of the seventh week, the mice were randomly divided into groups of 6. All groups continued to receive dexamethasone in the drinking water and low protein diet for the remainder of the study. Mice in each group were injected intraperitonially twice daily with 0.5 ml of a 10% DMSO solution as a vehicle control or the same cocktail containing drug to achieve a dose of 2 mg/kg. This procedure was continued for one week.
# At the end of the treatment period (a total of seven weeks of immunosuppression) the animals were sacrificed and the lung tissue removed. The tissue was then processed to determine the number of cysts for each animal.
# [2] = tested on: Pneumocystis carinii cysts; assay: 4-day treatment experiments, minimum effective dose for 90 percent clearance of cysts (Table III); format: in vivo; settings: minimum effective dose for 90 percent clearance of cysts, six animals per dose level
# Procedure: When 4-day treatment experiments were carried out in a similar manner, but using different doses in order to determine the minimum effective dose for 90 percent clearance of Pneumocystis carinii cysts, the results shown on Table III were obtained (Six animals were used at each dose level.)
# Pneumocystis carinii [3] = assay: Similar rat study, 7 days treatment, antipneumocystis activity of Compound IBii and Compound IA; format: in vivo; settings: rats, 2 mg/kg injected twice daily for 7 days; vehicle 10% DMSO
# Procedure: A similar rat study was conducted to determine the antipneumocystis activity of 1-[(4R,5R)-4,5-dihydroxy-N^2 -[4-(octyloxy)benzoyl]-L-iiornithine]echinocandin B (Compound IBii). After 6 weeks of immunosuppression the rats were injected twice daily for 7 days with vehicle alone, Compound IBii (2 mg/kg) or Compound IA (2 mg/kg) during which time immunosuppression was continued. At the end of the treatment period the animals were sacrificed and the number of cysts per lung determined. Compound IA reduced the number of cysts by >99% while Compound IBii reduced the cyst counts by approximately 84% (compared to the vehicle control, 10% DMSO).
# P. carinii [4] = assay: In vivo testing of Compound IA and TMP-SMZ against P. carinii in immunosuppressed rats (Table I); parameters: species or system Sprague-Dawley rats
# Procedure: In a representative study employing Compound IA in rats, nine male Sprague-Dawley rats from a colony known to have latent P. carinii infections, weighting approximately 200 grams each, were immunosupressed by the addition of dexamethasone to the drinking water (2.0 mg/liter) for six weeks to induce the development of P. carinii infections. To enhance the infection the rats were also maintained on a low protein diet. At the beginning of the seventh week the rats were divided into three groups of three rats each. All three groups continued to receive dexamethasone in the drinking water and low protein diet throughout the remainder of the study. The rats in Group I were kept as untreated infected controls, those in Group II were injected intraperitoneally twice daily for two weeks with 0.5 ml of sterile dH2 O containing 2 mg of Compound IA, and those in Group III were treated with trimethoprim-sulfamethoxazole (TMP-SMZ) in the drinking water (208 mg TMP and 1.040 g of SMZ/liter) for two weeks, a known treatment for P. carinii infections. Two rats died early in the experiment. One was from group II (rat 72A) and the other from group III (rat 75A). It was not determined whether they died from Pneumocystis pneumonia. At the end of the two week treatment period (a total of eight weeks of immunosuppression) the animals were sacrificed and the lung tissue removed. The lungs from each animal were weighed, and then processed to determine the number of cysts and parasite nuclei for each animal.
# P. carinii [5] = assay: Repeat rat experiment with larger number of rats, cysts per lung; format: in vivo; settings: five rats Compound IA, six rats TMP-SMZ; DMSO control 5.8×10^5 to 3.1×10^7; limit of resolution 2.8×10^3
# P. carinii [6] = assay: Long term (21 days) therapy study, rate of cyst clearance; format: in vivo
# Procedure: Pentamadine was administered intravenously daily at a dose of 10 mg/kg, 2.5 times the recommended dose for man. Compound IA was given twice daily intraperitonealy at 1.0 mg/kg.
# P. carinii [7] = assay: Prophylaxis study in immunosuppressed rats with latent P. carinii infections (Table IV); format: in vivo
# Procedure: In a study to test the effectiveness of these compounds as a potential prophylactic agent, rats with latent P. carinii infections were immunosuppressed with dexamethasone in drinking water to stimulate the development of acute PCP. During this immunosuppression period the animals were given daily subcutaneous injections of either 1 mg/kg of Compound IA or vehicle. After six weeks all animals were sacrificed. The number of cysts per lung was determined microscopically and the nuclei (trophozites)were quantitated using a specific DNA probe. From the following table (Table IV) it can be seen that the development of both cysts and trophozoite forms of P. carinii is prevented by daily treatments of Compound IA.
# Solubility properties = format: physicochemical; settings: methanol, ethanol, dimethylformamide, dimethyl sulfoxide, and the like
# Pneumocystis carinii [8] = assay: Rat study of the 2-aminoethyl ether of tetrahydroechinocandin B, four days subcutaneous, four dose levels; format: in vivo, Sprague-Dawley rats; settings: rats
# Procedure: In still another study, the antipneumocystis activity of a compound in wherein R^I is OH, R^II is OH, R^III is --CH2 CH2 NH2, R^I is OH, R^V is CH3, R^V is CH3, R is [drawing 21] preparation and structure in Example G) was determined. In this study, Sprague-Dawley rats (weighing approximately 250 g) were immunosuppressed with dexasone in the drinking water (2.0 mg/L) and maintained on a regular protein diet for 7 weeks to induce the development of pneumocystis pneumonia from a latent infection. Before drug treatment 2 rats were sacrificed to confirm the presence of Pneumocystis carinii pneumonia (PCP), both rats had infections. The remaining rats (weighing approximately 150 g) were distributed into groups of 6 and injected twice daily for four days subcutaneously with compound in 0.25 ml of vehicle (10% DMSO). The control groups received vehicle alone. All animals continued to receive dexasone in the drinking water and regular diet during the drug treatment period. At the completion of treatment all animals were sacrificed, the lungs were removed and processed, and the extent of disease determined by microscopic analysis of stained slides.
# Four dose levels of this compound were tested.
# [9] = individual rats, after two weeks treatment
# [10] = individual rats, after two weeks: Compound IA 2 mg i.p. twice daily, or TMP-SMZ in drinking water
# [11] = 1 mg/kg s.c. daily for six weeks, P ≤ 0.002
molecule,measurement,setting,value
"CCCCCCCCCCCCCCCCCC(=O)NC1CC(O)C(O)NC(=O)C2C(O)C(C)CN2C(=O)C(C(C)O)NC(=O)C(C(O)C(O)c2ccc(O)cc2)NC(=O)C2CC(O)CN2C(=O)C(C(C)O)NC1=O (stereo not drawn) [Tetrahydroechinocandin B (TEB), tetrahydroechinocandin B] (Stearoyl-[ξOrn(4,5-diOH)]T[Hyp][ξhTyr(βξ-OH,γξ-OH)]T[ξPro(3ξ-OH,4ξ-Me)]; lactam 1-C; configuration not given here)",% Reduction of Cysts,P. carinii [1],99%
same,ED90,[2],0.2 mg/kg
O-methyltetrahydroechinocandin B [O-Methyl-TEB],% Reduction of Cysts,P. carinii [1],> 99%
"CCCCCCCCOc1ccc(C(=O)NC2C[C@@H](O)[C@@H](O)NC(=O)C3[C@@H](O)[C@@H](C)CN3C(=O)C(C(C)O)NC(=O)C([C@H](O)[C@@H](O)c3ccc(O)cc3)NC(=O)C3C[C@@H](O)CN3C(=O)C(C(C)O)NC2=O)cc1 (stereo partly drawn) [Compound IBii, 1-[(4R,5R)-4,5-dihydroxy-N^2-[4-(octyloxy)benzoyl]-L-ornithine]echinocandin B] ({Benzoyl(4-octyloxy)}-[ξOrn(4R-OH,5R-OH)][ξT][ξPro(4R-OH)][ξhTyr(3S-OH,4S-OH)][ξT][X1]; lactam 1-C)",reduction of number of cysts per lung compared to vehicle control,Pneumocystis carinii [3],approximately 84%
same,ED90,[2],4.0 mg/kg
O-benzyltetrahydroechinocandin B [O-Benzyl-TEB],% Reduction of Cysts,P. carinii [1],99%
"CCCCC/C=C\C/C=C\CCCCCCCC(=O)N[C@H]1C[C@@H](O)[C@@H](O)NC(=O)[C@@H]2[C@@H](O)[C@@H](C)CN2C(=O)[C@H]([C@@H](C)O)NC(=O)[C@H]([C@H](O)[C@@H](O)c2ccc(O)cc2)NC(=O)[C@@H]2C[C@@H](O)CN2C(=O)[C@H]([C@@H](C)O)NC1=O [Echinocandin B] (Linoleoyl-[Orn(4R-OH,5R-OH)]T[Hyp][hTyr(3S-OH,4S-OH)]T[Pro(3S-OH,4S-Me)]; lactam 1-C)",% Reduction of Cysts,P. carinii [1],> 99%
same,ED90,[2],1.2 mg/kg
"CC[C@H](C)C[C@H](C)CCCCCCCCC(=O)N[C@H]1C[C@@H](O)[C@@H](O)NC(=O)[C@@H]2[C@@H](O)[C@@H](C)CN2C(=O)[C@H]([C@H](O)CC(N)=O)NC(=O)[C@H]([C@H](O)[C@@H](O)c2ccc(O)cc2)NC(=O)[C@@H]2C[C@@H](O)CN2C(=O)[C@H]([C@@H](C)O)NC1=O [Compound IA] ({Tetradecanoyl(10R,12S-Me2)}-[Orn(4R-OH,5R-OH)]T[Hyp][hTyr(3S-OH,4S-OH)][Gln(3R-OH)][Pro(3S-OH,4S-Me)]; lactam 1-C)",CYST SCORE,P. carinii [4]; [9],0
same,LUNG WT.,P. carinii [4]; [9],2.83 gms and 1.40 gms
same,TOTAL NUCLEI per gm lung,P. carinii [4]; [10],7.4 × 10^8 and 7.1 × 10^8
same,TOTAL NUCLEI per lung,P. carinii [4]; [10],2.1 × 10^9 and 1.0 × 10^9
same,cysts in the lungs of treated rats,"P. carinii [4]; two weeks treatment, controls 3.2×10^8 -1.5×10^9",No cysts could be found
same,number of parasite nuclei (range over treated rats),"P. carinii [4]; two weeks treatment, controls 5.8×10^9 -1.4×10^10",1.0-2.1×10^9
same,number of cysts per lung (range over rats),P. carinii [5],3.2×10^3 to 2.6×10^4
same,reduction of number of cysts per lung compared to vehicle control,Pneumocystis carinii [3],> 99%
same,% Reduction of Cysts,P. carinii [1],> 99%
same,extent of cyst clearance (reduction),"P. carinii [6]; Compound IA 1.0 mg/kg i.p. twice daily, compared with known agents at the two week time point",greater than 99%
same,time to elimination of cysts,P. carinii [6]; Compound IA 1.0 mg/kg intraperitoneally twice daily,≤ 4 days
same,ED90,[2],0.2 mg/kg
same,Cysts Log Mean,"P. carinii [7]; 1 mg/kg s.c. daily for six weeks during immunosuppression, detection limit 4.66, control 7.76 ± 0.10",4.70 ± 0.04
same,Nuclei Log Mean,"P. carinii [7]; 1 mg/kg s.c. daily for six weeks, DNA probe, detection limit 4.66, control 7.50 ± 0.15",4.85 ± 0.05
same,Cysts Reduction,P. carinii [7]; [11],> 99.9%
same,Nuclei Reduction,P. carinii [7]; [11],99.8%
same,Mean Lung Wt.,"P. carinii [7]; 1 mg/kg s.c. daily for six weeks, P ≤ 0.002 vs control",1.81 ± .10 gms
same,Mean Body Wt.,"P. carinii [7]; 1 mg/kg s.c. daily for six weeks, control 147.1 ± 6.3",142.0 ± 4.2 gms
same,solubility in organic solvents,Solubility properties,soluble
"Tetrahydroechinocandin-B, 2-aminoethyl Ether, Trifluoroacetate Salt [Example G]",reduction of cysts,Pneumocystis carinii [8]; 18.25 μg/kg s.c. twice daily for four days,96%
same,reduction of cysts,Pneumocystis carinii [8]; 37.5 μg/kg s.c. twice daily for four days,98%
same,reduction of cysts,Pneumocystis carinii [8]; 75 μg/kg s.c. twice daily for four days,99%
same,reduction of cysts,Pneumocystis carinii [8]; 150 μg/kg s.c. twice daily for four days,99%
same,ED90,"Pneumocystis carinii [8]; s.c. twice daily for four days, cyst reduction",below 18.25 μg/kg
same,ED90,[2],< 0.02 mg/kg
